Reference: ChEMBL document CHEMBL6087477, “G9a/GLP Modulators: Inhibitors to Degraders” (J Med Chem, 2025)
One block for each compound: values may come before it.

Tests used:
[1] = target: T1, Histone-lysine N-methyltransferase EHMT2 (Homo sapiens, UniProt Q96KQ7); test: Inhibition of G9a (unknown origin)
T1 sequence (Q96KQ7 whole entry): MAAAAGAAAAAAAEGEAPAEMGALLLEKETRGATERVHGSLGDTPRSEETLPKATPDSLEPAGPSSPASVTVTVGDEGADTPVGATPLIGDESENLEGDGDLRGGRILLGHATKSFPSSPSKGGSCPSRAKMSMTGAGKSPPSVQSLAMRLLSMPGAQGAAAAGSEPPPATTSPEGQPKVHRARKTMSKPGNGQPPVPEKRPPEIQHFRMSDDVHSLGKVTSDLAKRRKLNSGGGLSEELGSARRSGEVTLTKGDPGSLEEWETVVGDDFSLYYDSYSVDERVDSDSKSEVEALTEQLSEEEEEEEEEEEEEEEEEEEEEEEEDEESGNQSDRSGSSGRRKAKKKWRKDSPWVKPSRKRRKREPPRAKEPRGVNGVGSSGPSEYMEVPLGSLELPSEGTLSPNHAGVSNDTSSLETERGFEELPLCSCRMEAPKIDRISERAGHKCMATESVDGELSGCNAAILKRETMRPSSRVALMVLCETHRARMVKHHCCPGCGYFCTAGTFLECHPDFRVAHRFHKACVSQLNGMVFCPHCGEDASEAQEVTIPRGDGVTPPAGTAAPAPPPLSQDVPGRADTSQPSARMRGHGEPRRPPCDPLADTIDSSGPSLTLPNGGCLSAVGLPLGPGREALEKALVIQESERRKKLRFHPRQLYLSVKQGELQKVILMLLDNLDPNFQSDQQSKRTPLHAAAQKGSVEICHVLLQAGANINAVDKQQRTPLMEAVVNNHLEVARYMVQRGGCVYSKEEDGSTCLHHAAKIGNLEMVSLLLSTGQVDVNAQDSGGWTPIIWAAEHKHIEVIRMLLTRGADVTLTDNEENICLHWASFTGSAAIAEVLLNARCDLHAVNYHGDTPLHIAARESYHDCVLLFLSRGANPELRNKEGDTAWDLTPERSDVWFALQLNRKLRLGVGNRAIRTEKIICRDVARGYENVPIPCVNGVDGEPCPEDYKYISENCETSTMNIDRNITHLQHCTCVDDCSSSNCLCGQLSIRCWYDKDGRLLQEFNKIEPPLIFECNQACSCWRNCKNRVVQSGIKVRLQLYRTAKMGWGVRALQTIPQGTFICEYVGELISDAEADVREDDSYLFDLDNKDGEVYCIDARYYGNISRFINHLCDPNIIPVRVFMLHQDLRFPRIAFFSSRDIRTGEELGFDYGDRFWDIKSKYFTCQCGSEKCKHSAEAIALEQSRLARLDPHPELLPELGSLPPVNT

MCF7 [2] = test: Cytotoxicity against human MCF7 cells; format: functional, cell-based
[3] = target: T1, Histone-lysine N-methyltransferase EHMT2; test: Inhibition of G9a (unknown origin) using H3 as peptide substrate measured after 20 mins by fluorescence based analysis
hERG (KCNH2) = hERG (KCNH2) (Homo sapiens, UniProt Q12809); test: Inhibition of hERG at 30 uM relative to control; format: toxicity
[4] = Antiproliferative activity against human WILL-1 cells assessed as reduction in cell viability; format: functional, cell-based
DB = test: Antiproliferative activity against human DB cells assessed as reduction in cell viability; format: functional, cell-based
[5] = Antiproliferative activity against human SC1 cells assessed as reduction in cell viability; format: functional, cell-based; details: SC-1
[6] = Antiproliferative activity against human WSU-FSCCL cells assessed as reduction in cell viability; format: functional, cell-based
SK-BR-3 = test: Antiproliferative activity against human SK-BR-3 cells assessed as reduction in cell viability by sulforhodamine B assay; format: functional, cell-based
T47D = test: Antiproliferative activity against human T47D cells assessed as reduction in cell viability by sulforhodamine B assay; format: functional, cell-based
DOHH-2 = test: Antiproliferative activity against human DOHH-2 cells assessed as reduction in cell viability; format: functional, cell-based
MCF7 [7] = test: Antiproliferative activity against human MCF7 cells assessed as reduction in cell viability by sulforhodamine B assay; format: functional, cell-based
SU-DHL-8 = test: Antiproliferative activity against human SU-DHL-8 cells assessed as reduction in cell viability; format: functional, cell-based
[8] = target: T2, Histone-lysine N-methyltransferase EHMT1 (Homo sapiens, UniProt Q9H9B1); test: Inhibition of GLP (unknown origin)
T2 sequence (Q9H9B1 whole entry): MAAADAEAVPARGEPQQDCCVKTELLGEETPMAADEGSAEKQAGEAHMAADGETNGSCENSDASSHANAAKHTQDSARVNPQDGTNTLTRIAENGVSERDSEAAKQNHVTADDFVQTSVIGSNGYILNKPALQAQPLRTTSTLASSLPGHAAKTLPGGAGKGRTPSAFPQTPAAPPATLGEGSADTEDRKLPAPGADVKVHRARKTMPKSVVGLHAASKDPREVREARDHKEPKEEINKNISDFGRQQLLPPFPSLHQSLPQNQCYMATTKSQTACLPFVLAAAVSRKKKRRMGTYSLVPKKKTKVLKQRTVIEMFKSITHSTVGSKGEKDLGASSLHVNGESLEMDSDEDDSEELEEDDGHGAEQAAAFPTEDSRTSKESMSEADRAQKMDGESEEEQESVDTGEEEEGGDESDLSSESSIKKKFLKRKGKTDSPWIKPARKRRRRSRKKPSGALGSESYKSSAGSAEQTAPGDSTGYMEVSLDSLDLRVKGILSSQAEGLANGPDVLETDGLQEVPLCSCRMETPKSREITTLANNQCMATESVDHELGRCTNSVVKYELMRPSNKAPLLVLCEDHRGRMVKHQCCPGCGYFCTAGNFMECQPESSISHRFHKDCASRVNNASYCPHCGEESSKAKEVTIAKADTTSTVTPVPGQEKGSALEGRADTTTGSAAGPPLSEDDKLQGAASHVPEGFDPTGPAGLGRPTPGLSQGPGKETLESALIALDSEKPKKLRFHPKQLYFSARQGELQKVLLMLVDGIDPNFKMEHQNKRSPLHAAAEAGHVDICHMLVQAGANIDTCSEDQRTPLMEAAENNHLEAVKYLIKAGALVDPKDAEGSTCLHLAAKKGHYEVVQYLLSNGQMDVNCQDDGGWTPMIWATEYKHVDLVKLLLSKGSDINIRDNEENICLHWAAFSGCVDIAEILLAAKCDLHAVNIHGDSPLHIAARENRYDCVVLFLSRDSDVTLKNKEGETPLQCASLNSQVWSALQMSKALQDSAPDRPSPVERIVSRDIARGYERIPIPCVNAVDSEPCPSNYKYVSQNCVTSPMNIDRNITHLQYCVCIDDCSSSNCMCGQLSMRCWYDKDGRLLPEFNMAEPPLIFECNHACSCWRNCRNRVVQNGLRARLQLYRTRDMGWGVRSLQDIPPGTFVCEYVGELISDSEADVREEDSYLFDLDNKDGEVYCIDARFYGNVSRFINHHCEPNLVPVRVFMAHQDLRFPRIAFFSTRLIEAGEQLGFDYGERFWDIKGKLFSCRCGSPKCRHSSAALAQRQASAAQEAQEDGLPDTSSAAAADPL

[9] = Half life in Balb/c mouse at 3 mg/kg, iv; format: ADME, organism-based; details: in vivo
[10] = Microsomal stability in human liver microsomes assessed as half life measured for incubated upto 60 mins by LC-MS/MS analysis; format: ADME, Microsome
[11] = Microsomal stability in mouse liver microsomes assessed as half life incubated upto 60 mins by LC-MS/MS analysis; format: ADME, Microsome
[12] = target: T1, Histone-lysine N-methyltransferase EHMT2; test: Binding affinity to G9a (unknown origin) assessed as inhibition constant
[13] = target: T2, Histone-lysine N-methyltransferase EHMT1; test: Binding affinity to GLP (unknown origin) assessed as inhibition constant
[14] = Cmax in mouse at 10 mg/kg, po; format: ADME, organism-based; details: in vivo
[15] = target: T2, Histone-lysine N-methyltransferase EHMT1; test: Inhibition of GLP (unknown origin) measured after 20 mins by fluorescence based analysis

Sequence of hERG (KCNH2) (Q12809 whole entry): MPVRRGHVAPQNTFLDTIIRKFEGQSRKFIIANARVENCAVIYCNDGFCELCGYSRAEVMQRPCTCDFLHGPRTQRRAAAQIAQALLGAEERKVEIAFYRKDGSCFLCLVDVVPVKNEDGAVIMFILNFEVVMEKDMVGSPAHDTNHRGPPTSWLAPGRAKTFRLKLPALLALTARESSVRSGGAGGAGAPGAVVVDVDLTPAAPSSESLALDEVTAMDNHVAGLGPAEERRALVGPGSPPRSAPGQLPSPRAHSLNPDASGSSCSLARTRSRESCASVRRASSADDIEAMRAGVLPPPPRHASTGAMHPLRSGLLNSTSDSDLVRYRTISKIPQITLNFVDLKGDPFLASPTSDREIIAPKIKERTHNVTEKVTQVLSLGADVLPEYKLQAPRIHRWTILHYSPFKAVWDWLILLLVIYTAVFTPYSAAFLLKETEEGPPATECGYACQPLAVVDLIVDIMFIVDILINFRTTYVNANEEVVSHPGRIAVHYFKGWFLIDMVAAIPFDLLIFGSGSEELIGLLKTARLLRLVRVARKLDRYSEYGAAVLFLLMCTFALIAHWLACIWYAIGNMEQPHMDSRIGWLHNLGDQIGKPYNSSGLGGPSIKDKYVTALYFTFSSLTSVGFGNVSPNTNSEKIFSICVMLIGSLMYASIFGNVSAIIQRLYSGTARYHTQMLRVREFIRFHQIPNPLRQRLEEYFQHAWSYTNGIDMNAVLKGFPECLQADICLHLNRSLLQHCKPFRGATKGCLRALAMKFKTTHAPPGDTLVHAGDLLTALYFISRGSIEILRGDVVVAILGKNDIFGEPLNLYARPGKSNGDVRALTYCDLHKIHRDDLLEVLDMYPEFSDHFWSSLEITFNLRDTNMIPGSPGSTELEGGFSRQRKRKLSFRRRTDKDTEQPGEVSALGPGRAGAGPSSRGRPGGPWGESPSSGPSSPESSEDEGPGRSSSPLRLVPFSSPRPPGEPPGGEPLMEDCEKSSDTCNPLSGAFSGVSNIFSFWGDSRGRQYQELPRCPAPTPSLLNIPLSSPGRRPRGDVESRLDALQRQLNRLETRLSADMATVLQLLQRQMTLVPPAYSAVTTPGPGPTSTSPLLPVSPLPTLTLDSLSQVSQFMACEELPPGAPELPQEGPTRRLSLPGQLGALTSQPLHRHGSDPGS

SMILES: COc1cc2c(NC3CCN(C(C)C)CC3)nc(C3CCCCC3)nc2cc1OCCCN1CCCC1
EC50 (MCF7 [2]): 7.6 µM

SMILES: COc1cc2nc(N3CCN(C)CC3)nc(NC3CCN(Cc4ccccc4)CC3)c2cc1OC
IC50 [4]: 5.6 µM
IC50 (DB): < 1000 nM
IC50 [5]: 3.7 µM
IC50 [6]: 3.4 µM
IC50 (SK-BR-3): 7.7 µM
IC50 (T47D): 8.5 µM
IC50 (DOHH-2): 3.3 µM
IC50 (MCF7 [7]): 7.7 µM
IC50 (SU-DHL-8): < 1000 nM

SMILES: COc1cc2c(N(C)C3CCN(C(C)C)CC3)nc(C3CCCCC3)nc2cc1OCCCN1CCCC1
IC50 [8]: > 10 nM
IC50 [1]: 5 nM

SMILES: COc1cc2c(NC3CCN(C)CC3)cc(-c3ccc(C)o3)nc2cc1OCCCN1CCCC1
half-life [9]: 624 min
IC50 [8]: 8 nM
half-life [10]: > 144 min
half-life [11]: 6 min

SMILES: CN1C(=O)[C@]23C[C@]4([C@]56C[C@]78SS[C@](CO)(C(=O)N7[C@H]5Nc5ccccc56)N(C)C8=O)c5ccccc5N[C@@H]4N2C(=O)[C@@]1(CO)SS3
IC50 [1]: 1700 nM

SMILES: COc1cc2c(NC3CCN(C)CC3)nc(N3CCCN(C)CC3)nc2cc1OCCOCCN(C)C
Ki [12]: 9 nM
Ki [13]: 15 nM
IC50 [1]: < 15 nM

SMILES: COc1cc2c(NC3CCN(C4CC4)CC3)cc(-c3ccc(C)o3)nc2cc1OCCCN1CCCC1
half-life [9]: 1450 min
IC50 [8]: 22 nM
half-life [10]: > 144 min
half-life [11]: 36 min

Continued, in another order:

IC50 [1]: > 50000 nM
SMILES: CN1C(=O)C2C[C@]3([C@]45CC6C(=O)N(C)[C@@H](CO)C(=O)N6[C@H]4Nc4ccccc45)c4ccccc4N[C@@H]3N2C(=O)[C@@H]1CO (some centres not stated)

IC50 [3]: 75.7 nM
SMILES: COc1cc2c(cc1C1=CCN(C)CCC1)N=C(N)C21CCC1
inhibition at 30 µM (hERG (KCNH2)): 1%

IC50 [1]: 15 nM
SMILES: CCN(c1cc(-c2ccc(CN3CCOCC3)cc2)cc(C(=O)NCc2c(C)cc(C)[nH]c2=O)c1C)C1CCOCC1 [TAZEMETOSTAT]

IC50 [1]: > 50000 nM
SMILES: CN1C(=O)C2C[C@]3([C@]45CC6C(=O)N(C)[C@H](CO)C(=O)N6[C@H]4Nc4ccccc45)c4ccccc4N[C@@H]3N2C(=O)[C@H]1CO (some centres not stated)

IC50 [8]: < 2.5 nM
SMILES: COc1cc2c(NC3CCN(C(C)C)CC3)nc(N3CCOCC3)nc2cc1OCCCN1CCCC1

IC50 [8]: 53 nM
Cmax [14]: 42.4 µM
SMILES: Cc1c(C(=O)N[C@@H](CCC2CC2)C(=O)Nc2ccc(C#N)cc2)[nH]c2c1C(=O)CC(C)(C)C2

IC50 [3]: 33.9 nM
IC50 [15]: 33.9 nM
SMILES: COc1cc2c(cc1C1=CCNCCC1)N=C(N)C21CCC1
inhibition at 30 µM (hERG (KCNH2)): 5%

IC50 [3]: 32.3 nM
SMILES: CNc1cc(C)nc(Nc2ccc(OC)c(C3=CCNCCC3)c2)n1

IC50 [8]: 0.7 nM
SMILES: COc1cc2c(NC3CCN(C(C)C)CC3)cc(C3CCCCC3)nc2cc1OCCCN1CCCC1
